Laboratory results reported in article PMC10586084 (Journal of Enzyme Inhibition and Medicinal Chemistry, 2023).

Experiments:
Type in all cases: biochemical
hCA II = hCA II (Homo sapiens, UniProt P00918); assay: stopped-flow CO2 hydrase assay, hCA II; details: stopped flow technique, mean from three assays
hCA I = hCA I (Homo sapiens, UniProt P00915); assay: stopped-flow CO2 hydrase assay, hCA I; details: stopped flow technique, mean from three assays
hCA IV = hCA IV (Homo sapiens, UniProt P22748); assay: stopped-flow CO2 hydrase assay, hCA IV; details: stopped flow technique, mean from three assays
hCA XII = hCA XII (Homo sapiens, UniProt O43570); assay: stopped-flow CO2 hydrase assay, hCA XII; details: for Ki: KI hCA XII, stopped flow technique, mean from three assays; for Selectivity index I/XII: ratio KI hCA I / KI hCA XII; for Selectivity index II/XII: ratio KI hCA II / KI hCA XII; for Selectivity index IV/XII: ratio KI hCA IV / KI hCA XII
hCA IX = hCA IX (Homo sapiens, UniProt Q16790); assay: biochemical; details: for Ki: KI hCA IX, stopped flow technique, mean from three assays; for Selectivity index I/IX: ratio KI hCA I / KI hCA IX; for Selectivity index II/IX: ratio KI hCA II / KI hCA IX; for Selectivity index IV/IX: ratio KI hCA IV / KI hCA IX

hCA I, sequence (P00915 whole entry): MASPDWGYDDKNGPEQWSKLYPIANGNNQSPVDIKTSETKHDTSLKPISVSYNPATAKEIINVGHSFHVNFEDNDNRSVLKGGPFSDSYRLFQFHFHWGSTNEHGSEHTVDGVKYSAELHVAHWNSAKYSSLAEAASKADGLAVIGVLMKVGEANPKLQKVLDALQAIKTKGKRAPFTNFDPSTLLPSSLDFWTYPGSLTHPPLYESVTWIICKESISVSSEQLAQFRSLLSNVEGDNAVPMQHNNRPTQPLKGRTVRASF
hCA XII, sequence (O43570 25-354): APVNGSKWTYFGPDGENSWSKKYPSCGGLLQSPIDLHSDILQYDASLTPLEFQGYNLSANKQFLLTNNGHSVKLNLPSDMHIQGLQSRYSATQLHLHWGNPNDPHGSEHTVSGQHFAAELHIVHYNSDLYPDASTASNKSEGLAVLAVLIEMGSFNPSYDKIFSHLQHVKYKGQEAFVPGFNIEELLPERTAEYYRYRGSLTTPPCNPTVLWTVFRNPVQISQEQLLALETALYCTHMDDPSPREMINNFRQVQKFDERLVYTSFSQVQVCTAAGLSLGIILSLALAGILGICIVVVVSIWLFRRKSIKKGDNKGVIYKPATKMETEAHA
hCA IV, sequence (P22748 19-284 limits assumed): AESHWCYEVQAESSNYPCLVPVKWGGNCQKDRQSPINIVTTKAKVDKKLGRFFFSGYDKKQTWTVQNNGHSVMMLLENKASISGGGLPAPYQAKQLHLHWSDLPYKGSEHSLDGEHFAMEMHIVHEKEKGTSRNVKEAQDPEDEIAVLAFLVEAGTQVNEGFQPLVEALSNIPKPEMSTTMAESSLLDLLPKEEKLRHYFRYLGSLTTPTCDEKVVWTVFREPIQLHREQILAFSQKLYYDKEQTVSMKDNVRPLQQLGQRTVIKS

Row | SMILES | Ki (hCA II) [nM] | Ki (hCA I) [nM] | Ki (hCA IV) [nM] | Ki (hCA XII) [nM] | Selectivity index I/XII (hCA XII) | Selectivity index II/XII (hCA XII) | Selectivity index IV/XII (hCA XII) | Ki (hCA IX) [nM] | Selectivity index I/IX (hCA IX) | Selectivity index II/IX (hCA IX) | Selectivity index IV/IX (hCA IX)
1 | NS(=O)(=O)c1ccc(Nc2nc3nccc(-c4ccccc4)n3n2)cc1 [Compound 1a, 4-((7-Phenyl-[1,2,4]triazolo[1,5-a]pyrimidin-2-yl)amino)benzenesulfonamide] | 75.3 | 841 | 1330 | 71.7 | 11.7 | 1.0 | 18.5 | 33.2 | 25.3 | 2.3 | 39.9
2 | COc1cc(OC)cc(-c2ccnc3nc(Nc4ccc(S(N)(=O)=O)cc4)nn23)c1 [Compound 1aa, 4-((7-(3,5-Dimethoxyphenyl)-[1,2,4]triazolo[1,5-a]pyrimidin-2-yl)amino)benzenesulfonamide] | 110 | 4530 | 1010 | 27.1 | 167 | 4.1 | 37.2 | 46.8 | 96.7 | 2.4 | 21.5
3 | COc1ccc(-c2ccnc3nc(Nc4ccc(S(N)(=O)=O)cc4)nn23)cc1OC [Compound 1ab, 4-((7-(3,4-Dimethoxyphenyl)-[1,2,4]triazolo[1,5-a]pyrimidin-2-yl)amino)benzenesulfonamide] | 95.2 | 993 | 1520 | 9 | 110 | 10.6 | 169 | 35.8 | 27.7 | 2.6 | 42.4
4 | NS(=O)(=O)c1ccc(Nc2nc3nccc(-c4cccs4)n3n2)cc1 [Compound 1b, 4-((7-(Thiophen-2-yl)-[1,2,4]triazolo[1,5-a]pyrimidin-2-yl)amino)benzenesulfonamide] | 98.2 | 501 | 2660 | 66.9 | 7.5 | 1.5 | 39.7 | 49.5 | 10.1 | 2.0 | 53.7
5 | NS(=O)(=O)c1ccc(Nc2nc3nccc(-c4ccncc4)n3n2)cc1 [Compound 1c, 4-((7-(Pyridin-4-yl)-[1,2,4]triazolo[1,5-a]pyrimidin-2-yl)amino)benzenesulfonamide] | 43.7 | 725 | 726 | 15.3 | 47.4 | 2.9 | 47.5 | 41.6 | 17.4 | 1.0 | 17.5
6 | NS(=O)(=O)c1ccc(Nc2nc3nccc(-c4cccnc4)n3n2)cc1 [Compound 1d, 4-((7-(Pyridin-3-yl)-[1,2,4]triazolo[1,5-a]pyrimidin-2-yl)amino)benzenesulfonamide] | 24.8 | 602 | 333 | 8.8 |  |  |  | 5.1 |  |  | 
7 | NS(=O)(=O)c1ccc(Nc2nc3nccc(-c4ccc(F)cc4)n3n2)cc1 [Compound 1f, 4-((7-(4-Fluorophenyl)-[1,2,4]triazolo[1,5-a]pyrimidin-2-yl)amino)benzenesulfonamide] | 82.7 | 763 | 993 | 62.4 | 12.2 | 1.3 | 15.9 | 28.8 | 26.5 | 2.9 | 34.5
8 | NS(=O)(=O)c1ccc(Nc2nc3nccc(-c4cccc(F)c4)n3n2)cc1 [Compound 1g, 4-((7-(3-Fluorophenyl)-[1,2,4]triazolo[1,5-a]pyrimidin-2-yl)amino)benzenesulfonamide] | 45.9 | 551 | 853 | 42.6 | 12.9 | 1.1 | 20.0 | 22.4 | 24.6 | 2.0 | 38.1
9 | NS(=O)(=O)c1ccc(Nc2nc3nccc(-c4ccccc4F)n3n2)cc1 [Compound 1h, 4-((7-(2-Fluorophenyl)-[1,2,4]triazolo[1,5-a]pyrimidin-2-yl)amino)benzenesulfonamide] | 35.9 | 682 | 920 | 25.8 | 26.4 | 1.4 | 35.7 | 19.5 | 35.0 | 1.8 | 47.2
10 | NS(=O)(=O)c1ccc(Nc2nc3nccc(-c4c(F)cccc4F)n3n2)cc1 [Compound 1i, 4-((7-(2,6-Difluorophenyl)-[1,2,4]triazolo[1,5-a]pyrimidin-2-yl)amino)benzenesulfonamide] | 17.6 | 743 | 703 | 22.5 | 33 | 0.8 | 31.2 | 21.9 | 33.9 | 0.8 | 32.1
11 | NS(=O)(=O)c1ccc(Nc2nc3nccc(-c4ccc(Cl)cc4)n3n2)cc1 [Compound 1k, 4-((7-(4-Chlorophenyl)-[1,2,4]triazolo[1,5-a]pyrimidin-2-yl)amino)benzenesulfonamide] | 62.4 | 2250 | 4000 | 29.2 | 77.1 | 2.1 | 137 | 74.1 | 30.4 | 0.8 | 53.9
12 | NS(=O)(=O)c1ccc(Nc2nc3nccc(-c4cccc(Cl)c4)n3n2)cc1 [Compound 1l, 4-((7-(3-Chlorophenyl)-[1,2,4]triazolo[1,5-a]pyrimidin-2-yl)amino)benzenesulfonamide] | 124 | 6580 | 5980 | 46.4 | 142 | 2.7 | 129 | 30.4 | 216 | 4.06 | 197
13 | NS(=O)(=O)c1ccc(Nc2nc3nccc(-c4ccc(Br)cc4)n3n2)cc1 [Compound 1n, 4-((7-(4-Bromophenyl)-[1,2,4]triazolo[1,5-a]pyrimidin-2-yl)amino)benzenesulfonamide] | 200 | 3370 | 5210 | 58.2 | 57.8 | 3.4 | 89.6 | 52.7 | 63.8 | 3.8 | 98.9
14 | NS(=O)(=O)c1ccc(Nc2nc3nccc(-c4cccc(Br)c4)n3n2)cc1 [Compound 1o, 4-((7-(3-Bromophenyl)-[1,2,4]triazolo[1,5-a]pyrimidin-2-yl)amino)benzenesulfonamide] | 133 | 9200 | 4330 | 78.6 | 117 | 1.7 | 55.1 | 38.1 | 241 | 3.5 | 114
15 | NS(=O)(=O)c1ccc(Nc2nc3nccc(-c4ccc(I)cc4)n3n2)cc1 [Compound 1p, 4-((7-(4-Iodophenyl)-[1,2,4]triazolo[1,5-a]pyrimidin-2-yl)amino)benzenesulfonamide] | 559 | 7630 | 8850 | 39 | 196 | 14.3 | 227 | 95.7 | 79.7 | 5.8 | 92.5
16 | NS(=O)(=O)c1ccc(Nc2nc3nccc(-c4ccc([N+](=O)[O-])cc4)n3n2)cc1 [Compound 1q, 4-((7-(4-Nitrophenyl)-[1,2,4]triazolo[1,5-a]pyrimidin-2-yl)amino)benzenesulfonamide] | 86.3 | 4290 | 3260 | 42.1 | 102 | 2.0 | 77.4 | 69.4 | 61.8 | 1.2 | 46.9
17 | NS(=O)(=O)c1ccc(Nc2nc3nccc(-c4cccc([N+](=O)[O-])c4)n3n2)cc1 [Compound 1r, 4-((7-(3-Nitrophenyl)-[1,2,4]triazolo[1,5-a]pyrimidin-2-yl)amino)benzenesulfonamide] | 48 | 3470 | 690 | 4.3 | 806 | 11.2 | 160 | 49.9 | 69.5 | 1.0 | 13.8
